According to patent US11938189B2, “Compositions and methods for stabilizing protein-containing formulations” (Genentech, Inc., priority 2010, dated 2024):

Experiments:
[1] = in water at 20-25° C., cited from earlier work; for CMC Value (% w/v): cells printed without %
[2] = test system: anti-MUC16 monoclonal antibody; assay: Shaking-induced aggregation (150 rpm), percent monomer by size-exclusion chromatography; type: physicochemical; settings: surfactant at one half of its CMC; shaking 150 rpm, 37° C., 64 hours; FIG. 1
Protocol: In this set of studies, a buffered solution (20 mM sodium phosphate buffer, pH 7.4) of monoclonal antibody was subjected to shaking on an orbital shaker at 150 rpm, at a controlled temperature of 37° C. These studies were carried out using a 3 ml solution fill of the antibody solution in a 6 cc glass vial. Samples were withdrawn at regular intervals and analyzed for percent monomer using size-exclusion chromatography. Various surfactants of the class of alkylglycosides were evaluated for their effectiveness to prevent protein aggregation during shaking. The surfactants were used at concentrations below their respective critical micelle concentration (CMC) or above their respective CMC.
The surfactants were employed at one half the concentration of their respective CMC values, i.e., 1.1 mM (0.035% w/v) n-decyl-β-D-glucopyranoside, 9 mM (0.24%) n-octyl-β-D-glucopyranoside and 0.04 mM (0.0035%) polysorbate 20.

[3] = test system: anti-CD11a monoclonal antibody; assay: Oxidation of Met256 on storage in surfactant-containing antibody solution; type: physicochemical; settings: 0.1% w/v surfactant, pH 6.0, stored at 5° C. or 40° C. for 2 or 4 weeks; FIG. 15
Protocol: In a second experiment, oxidation of the Met256 amino acid residue in an anti-CD11a monoclonal antibody in solutions containing either n-decyl-β-D-glucopyranoside, n-octyl-β-D-glucopyranoside, or polysorbate 20 was evaluated. For this purpose, 3 ml of the buffered antibody solution (pH 6.0) containing 0.1% w/v of the surfactant was stored in 6 cc vials at either 5° C. or 40° C. for a period of either 2 or 4 weeks.

[4] = test system: Humanized anti-oxidized LDL monoclonal antibody; assay: Light-induced oxidation of tryptophan residues (LC/MS/MS tryptic peptide map); type: physicochemical; settings: Light 24 hrs
Protocol: MAb samples and light treatment: Humanized anti-oxidized LDL monoclonal antibody, was produced at Genentech, Inc. from a CHO cell line. Three independent samples were prepared for photostability studies: 1) control sample, vial wrapped with aluminum foil; 2) test sample, vial light exposed (unwrapped); 3) test sample, vial light exposed (unwrapped) containing the specified non-ionic surfactant. Both control & light exposed samples were kept in a light box for 24 hrs. Light exposure following ICH guideline with following setting for a Atlas SUNTEST CPS+Light Box: Irradiance level=250 watts/square meter; Time set for 24 hours; Total UV dose=538 watt-hours/square meter; Total visible dose=1,320,000 lux-hours.
LC/MS/MS of tryptic MAb peptide map: Samples were digested with trypsin after reduction and alkylation. The resulting peptides were analyzed with a Thermo LTQ-Orbitrap mass spectrometer coupled with an Agilent 1200 capillary HPLC system. HPLC column: Jupiter 5 um C18 250×1.0 mm, flow rate: 70 uL/min, column oven temperature: 55° C. Solvent A: 0.1% TFA in water, B: 0.09% TFA in 90% ACN. Orbitrap setting: MS resolution 60000, MS/MS collected in data dependent mode, using LTQ.
The effect of light, and the protective effect of non-ionic surfactants, on the oxidation of tryptophan residues on an anti-oxidized LDL antibody was determined.

SMILES | CMC Value [1] [mM] | CMC Value (w/v) [1] [% w/v] | other results
OC[C@H]1O[C@H](O[C@H]2[C@H](O)[C@@H](O)[C@H](OCCC3CCCCC3)O[C@@H]2CO)[C@H](O)[C@@H](O)[C@@H]1O [2-cyclohexyl-ethyl-β-D-maltoside] | 120 | 5.4 | 
CC(CCO[C@@H]1O[C@H](CO)[C@@H](O)[C@H](O)[C@H]1O)C1CCCCC1 (stereo partly drawn) [3-cyclohexyl-1-butyl-β-D-glucoside] | 1.8 | 0.058 | 
OC[C@H]1O[C@@H](OCCCC2CCCCC2)[C@H](O)[C@@H](O)[C@@H]1O [3-cyclohexyl-1-propyl-β-D-glucoside] | 28 | 0.86 | 
OC[C@H]1O[C@H](O[C@H]2[C@H](O)[C@@H](O)[C@H](OCCCC3CCCCC3)O[C@@H]2CO)[C@H](O)[C@@H](O)[C@@H]1O [3-cyclohexyl-propyl-β-D-maltoside] | 34.5 | 1.6 | 
OC[C@H]1O[C@H](O[C@H]2[C@H](O)[C@@H](O)[C@H](OCCCCC3CCCCC3)O[C@@H]2CO)[C@H](O)[C@@H](O)[C@@H]1O [4-cyclohexyl-butyl-β-D-maltoside] | 7.6 | 0.37 | 
OC[C@H]1O[C@H](O[C@H]2[C@H](O)[C@@H](O)[C@H](OCCCCCC3CCCCC3)O[C@@H]2CO)[C@H](O)[C@@H](O)[C@@H]1O [5-cyclohexyl-pentyl-β-D-maltoside] | 2.4 | 0.12 | 
OC[C@H]1O[C@H](O[C@H]2[C@H](O)[C@@H](O)[C@H](OCC3CCCCC3)O[C@@H]2CO)[C@H](O)[C@@H](O)[C@@H]1O [cyclohexyl-methyl-β-D-maltoside] | 340 | 15 | 
CCCCCCCCCCO[C@@H]1O[C@H](CO)[C@@H](O)[C@H](O)[C@H]1O [n-decyl-β-D-glucopyranoside] | 2.2 | 0.07 | prevention of shaking-induced loss of percent monomer [2]: effective in preventing loss of monomer; increase in percent oxidized Met256 vs initial sample [3]: no significant increase
CCCCCCCCCCO[C@@H]1O[C@H](CO)[C@@H](O[C@H]2O[C@H](CO)[C@@H](O)[C@H](O)[C@H]2O)[C@H](O)[C@H]1O [n-decyl-β-D-maltopyranoside] | 1.8 | 0.087 | 
CCCCCCCCCCCCO[C@@H]1O[C@H](CO)[C@@H](O)[C@H](O)[C@H]1O [n-dodecyl-β-D-glucopyranoside, reference compound] | 0.19 |  | CMC Value (% w/v) [1]: 0.0066 % w/v; % Oxidized Trp33 ([4]; 0.03 mM surfactant): 0.4%; % Oxidized Trp92 ([4]; 0.03 mM surfactant): 8.9%
CCCCCCCCCCCCO[C@@H]1O[C@H](CO)[C@@H](O[C@H]2O[C@H](CO)[C@@H](O)[C@H](O)[C@H]2O)[C@H](O)[C@H]1O [n-dodecyl-β-D-maltopyranoside, reference compound] | 0.17 |  | CMC Value (% w/v) [1]: 0.0087 % w/v; % Oxidized Trp33 ([4]; 0.03 mM surfactant): 0.0%; % Oxidized Trp92 ([4]; 0.03 mM surfactant): 10.6%; % Oxidized Trp33 ([4]; 0.39 mM surfactant): 0.1%; % Oxidized Trp92 ([4]; 0.39 mM surfactant): 2.7%
CCCCCCCO[C@@H]1O[C@H](CO)[C@@H](O)[C@H](O)[C@H]1O [n-heptyl-β-D-glucopyranoside] | 70 | 1.9 | 
CCCCCCO[C@@H]1O[C@H](CO)[C@@H](O)[C@H](O)[C@H]1O [n-hexyl-β-D-glucopyranoside] | 250 | 6.6 | % Oxidized Trp33 ([4]; 0.39 mM surfactant): 0.3%; % Oxidized Trp92 ([4]; 0.39 mM surfactant): 4.9%; % Oxidized Trp33 ([4]; 300 mM surfactant): 0.0%; % Oxidized Trp92 ([4]; 300 mM surfactant): 1.6%
CCCCCCO[C@@H]1O[C@H](CO)[C@@H](O[C@H]2O[C@H](CO)[C@@H](O)[C@H](O)[C@H]2O)[C@H](O)[C@H]1O [n-hexyl-β-D-maltopyranoside] | 210 | 8.9 | % Oxidized Trp33 ([4]; 0.39 mM surfactant): 0.3%; % Oxidized Trp92 ([4]; 0.39 mM surfactant): 5.7%; % Oxidized Trp33 ([4]; 300 mM surfactant): 0.0%; % Oxidized Trp92 ([4]; 300 mM surfactant): 2.2%
CCCCCCCCCO[C@@H]1O[C@H](CO)[C@@H](O)[C@H](O)[C@H]1O [n-nonyl-β-D-glucopyranoside] | 6.5 | 0.2 | 
CCCCCCCCCO[C@@H]1O[C@H](CO)[C@@H](O[C@H]2O[C@H](CO)[C@@H](O)[C@H](O)[C@H]2O)[C@H](O)[C@H]1O [n-nonyl-β-D-maltopyranoside] | 6 | 0.28 | 
CCCCCCCCO[C@@H]1O[C@H](CO)[C@@H](O[C@H]2O[C@H](CO)[C@@H](O)[C@H](O)[C@H]2O)[C@H](O)[C@H]1O [n-octyl-β-D-maltopyranoside] | 19.5 | 0.89 | 
